# PubChem BioAssay (NCI)
# Where “and” joins values, the source holds several entries; their conditions need not be identical. Equal values may be shown once.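 All cell lines were grown in 96-well plates and treated with compound for 48 hours. GI50 = concentration required for 50% inhibition of growth. TGI is the concentration that stops growth completely.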
# What was measured:
# Assay in all cases: DTP human tumour cell line panel, 48 h
# BT-549 breast = tested on: BT-549 breast
# DU-145 prostate = tested on: DU-145 prostate
# HS 578T breast = tested on: HS 578T breast
# MDA-MB-231 breast = tested on: MDA-MB-231 breast
# MDA-MB-435 = tested on: MDA-MB-435
# PC-3 prostate = tested on: PC-3 prostate
# DMS 273 small cell lung = tested on: DMS 273 small cell lung
# SNB-78 CNS = tested on: SNB-78 CNS
# 786-0 renal = tested on: 786-0 renal
# MDA-N = tested on: MDA-N
# T-47D breast = tested on: T-47D breast
Compound,TGI (BT-549 breast),TGI (DU-145 prostate),TGI (HS 578T breast),TGI (MDA-MB-231 breast),TGI (MDA-MB-435),TGI (PC-3 prostate),TGI (DMS 273 small cell lung),TGI (SNB-78 CNS),TGI (786-0 renal),TGI (MDA-N),TGI (T-47D breast),GI50 (DMS 273 small cell lung),GI50 (DU-145 prostate),GI50 (MDA-MB-231 breast),GI50 (MDA-MB-435),GI50 (PC-3 prostate),GI50 (SNB-78 CNS),GI50 (T-47D breast),GI50 (HS 578T breast)
O=c1c(-c2ccccc2)c(SCCN2CCOCC2)n(-c2ccccc2)c(=S)n1-c1ccccc1,> 100 µM,> 100 µM,> 100 µM,> 100 µM,> 100 µM,> 100 µM,,,,,,,,,,,,,
O=C(CSSCC(=O)OCCS(=O)(=O)Nc1ccc(Br)cc1)OCCS(=O)(=O)Nc1ccc(Br)cc1,,,,,,,40.3 µM,71.3 µM,,,,,,,,,,,
CCCC[C@H]1C(=O)O[C@H](C)[C@H](NC(=O)c2cccc(NC=O)c2OC)C(=O)O[C@@H](C)[C@@H]1OC(=O)CC(C)C (tested in a mixture with another compound),40.1 µM,55.7 µM,63.1 µM,29.8 µM,25.6 µM,32.6 µM,,,29.3 µM,50.3 µM,44.5 µM,,,,,,,,
O=S(=O)(O)c1ccc2c(N=Nc3ccccc3)c(O)ccc2c1,> 100 µM,> 100 µM,> 100 µM,> 100 µM,> 100 µM,> 100 µM,,,> 100 µM,> 100 µM,> 100 µM,,,,,,,,
Cc1ccc2c3c1[C@@H]1O[C@@H]1c1cccc(c1-3)[C@@H]1O[C@H]21,32.7 µM,22.9 µM,60.2 µM,36.2 µM,31.4 µM,30.7 µM,,,,30.5 µM,20.9 µM,,,,,,,,
Cc1cc2c(cc1Cl)SC(c1ccccc1O)NS2(=O)=O (stereo not given),> 100 µM,> 100 µM,> 100 µM,> 100 µM,> 100 µM,> 100 µM,,,> 100 µM,,55.1 µM,,,,,,,,
CCOC(=O)/C(=C\NC(C)(C)CO)c1nc2ccccc2[nH]1,> 100 µM,> 100 µM,97.7 µM,,> 100 µM,,,,> 100 µM,> 100 µM,,,,,,,,,
COc1ccc(N=Nc2c(N)nn(C)c2N)cc1,,,,,,,> 100 µM,> 100 µM,> 100 µM,,,,,,,,,,
CCOC(=O)C12CC(C)=C(C)CC1CCCc1ccccc12 (stereo not given),> 100 µM,> 100 µM,> 100 µM,31.5 µM,97.2 µM,68.1 µM,,,> 100 µM,86.6 µM,55.5 µM,,,,,,,,
COc1ccc(N=Cc2ccc(N(CCC#N)S(=O)(=O)c3ccccc3)cc2C)cc1,,,,,,,,> 100 µM,,,,,,,,,,,
COc1ccc2c(c1)CCCc1c-2nc2ccccc2c1N,31 µM,26.1 µM,45.3 µM,19 µM,24.8 µM,23.4 µM,,,18.5 µM,21.9 µM,31.3 µM,,,,,,,,
N#Cc1c(-c2ccc(Cl)cc2)c2c([nH]c1=O)-c1cc([N+](=O)[O-])ccc1CCC2,36.3 µM,> 100 µM,99.2 µM,57.3 µM,> 100 µM,> 100 µM,,,79.9 µM,> 100 µM,> 100 µM,,,,,,,,
COC(=O)c1ccc2c(c1)sc1nc(-c3ccc(OC)cc3)cn12,> 100 µM,> 100 µM,> 100 µM,> 100 µM,> 100 µM,> 100 µM,,,> 100 µM,> 100 µM,> 100 µM,,,,,,,,
COc1cc(C2C(=O)C(Cl)N2Nc2nc(C)cc(=O)[nH]2)cc(OC)c1OC (stereo not given),,,,,,,24.2 µM,65.8 µM,,,,,,,,,,,
C[C@H]1CCC/C=C/[C@@H]2C[C@H](O)C[C@H]2[C@H](O)/C=C/C(=O)O1,,,> 100 µM,0.0821 µM and 0.0399 µM,,,0.148 µM,> 100 µM,,,,0.0305 µM,0.0785 µM and 0.218 µM and 0.248 µM,< 0.01 µM and 0.0205 µM and 0.0547 µM,< 0.0173 µM and 0.0369 µM and 0.0449 µM,< 0.0202 µM and 0.0475 µM and 0.0478 µM,0.0324 µM,0.0809 µM and 0.619 µM,
CCCCCCCCCCCCSC(=S)c1c(C)[nH]n(CCCCCCCCCCCC)c1=O,,,,,,,,> 100 µM,,,,,,,,,,,
O=C1CS(=O)(=O)C(c2cccc(Oc3ccccc3)c2)N1C1CC1 (stereo not given),> 100 µM,> 100 µM,> 100 µM,> 100 µM,75.1 µM,66.2 µM,,,> 100 µM,80.1 µM,> 100 µM,,,,,,,,
Cc1cn(Cc2cn(CC3OC(n4cc(C)c(=O)[nH]c4=O)CC3O)nn2)c(=O)[nH]c1=O (stereo not given),> 100 µM,> 100 µM,> 100 µM,> 100 µM,> 100 µM,> 100 µM,,,,> 100 µM,> 100 µM,,,,,,,,
CCN(CCO)CCNc1ccc(C)c2sc3ccccc3c(=O)c12,26.7 µM,21.8 µM,7.49 µM,5.32 µM,3.74 µM,12.7 µM,6.94 µM,20.6 µM,8.57 µM,3.16 µM,7.43 µM,,,,,,,,
Cn1c2cn[nH]c(=O)c2c2ccc3ccccc3c21,> 100 µM,> 100 µM,53.1 µM,57.6 µM,> 100 µM,> 100 µM,,,42.1 µM,> 100 µM,> 100 µM,,,,,,,,
O=C(O)CCCN=C(C1=C(O)C(=O)N(c2ccccc2)C1=O)c1ccccc1,> 100 µM,> 100 µM,> 100 µM,> 100 µM,> 100 µM,> 100 µM,,,> 100 µM,> 100 µM,> 100 µM,,,,,,,,
O=c1[nH]c(=O)n(CCOCP(=O)(O)O)nc1Br,> 100 µM,> 100 µM,> 100 µM,> 100 µM,> 100 µM,> 100 µM,,,,> 100 µM,> 100 µM,,,,,,,,
Cc1cc(=O)n2c3c(c4c(cc13)c(CN(C)C)cc(=O)n4C)OC2,83.8 µM,> 75.9 µM,41.1 µM,98.7 µM,> 58.2 µM,> 59.2 µM,,,> 100 µM,> 87.7 µM,> 100 µM,,,,,,,,
CCCCCCCCCCCCCCCCCC(=O)OCC1OC(OC)C(NC(=O)N(CCCl)N=O)C(O)C1O (stereo not given),,,,,,,56.9 µM,> 100 µM,,,,,,,,,,,
O=c1[nH]c2cc([N+](=O)[O-])c(N/N=C/c3ccc(Cl)cc3Cl)c([N+](=O)[O-])c2[nH]1,> 100 µM,> 100 µM,> 100 µM,60.5 µM,> 100 µM,> 100 µM,,,> 100 µM,> 100 µM,> 100 µM,,,,,,,,
CC(C)(C)c1cc(-c2nc3ccc(N4CCN(CCO)CC4)cc3[nH]2)cc(C(C)(C)C)c1O,,> 100 µM,4.68 µM,,,,,,,,> 100 µM,,4.08 µM,,,,,2.86 µM,1.73 µM
N=C(N)c1ccc(N=Nc2c(O)ccc3cc4c(N=Nc5ccc(C(=N)N)cc5)c(O)ccc4cc23)cc1,> 100 µM,> 100 µM,> 100 µM,> 100 µM,> 100 µM,> 100 µM,,,> 100 µM,> 100 µM,> 100 µM,,,,,,,,
C/C(=C\C(=N\NC(=N)N)c1ccccc1)c1ccccc1,,9.49 µM,18.5 µM,,2.97 µM,3.21 µM,,,11.3 µM,2.7 µM,2.81 µM,,,,,,,,
O=C(NC(Cc1ccc(Cl)cc1)C(=O)O)c1ccc(I)cc1 (stereo not given),,,,,,,> 100 µM,> 100 µM,,,,,,,,,,,
